Measured values as given in ChEMBL document CHEMBL3885861, “Open TG-GATES”.

Organism: Rattus norvegicus
Assay: Open TG-GATES - Regimen: Daily Repeat
Format: toxicity, organism-based, Sprague-Dawley
Set-up: regimen Daily Repeat, gender Male, age 6 weeks
Conditions: in vivo, po, route gavage; for KIDNEY_L / KIDNEY_R / KIDNEY_TOTAL: tissue Kidney; for ALP / ALT / AST / BUN / CRE / Ca / Cl / DBIL / GLC / IP / K / LDH / Na / RALB / TBIL / TC / TG / TP / gamma-GTP / PL: tissue Plasma
[1] = 200 mg/kg, 72 h, tissue Blood, dose level Middle, time 3 day
[2] = 200 mg/kg, 72 h, dose level Middle, time 3 day
[3] = 200 mg/kg, […], dose level Middle, time 7 day
[4] = 200 mg/kg, […], dose level Middle, time 14 day
[5] = 200 mg/kg, […], dose level Middle, time 28 day
[6] = 200 mg/kg, […], tissue Blood, dose level Middle, time 7 day
[7] = 200 mg/kg, […], tissue Blood, dose level Middle, time 14 day
[8] = 200 mg/kg, […], tissue Blood, dose level Middle, time 28 day
[9] = 600 mg/kg, 72 h, dose level High, time 3 day
[10] = 600 mg/kg, 72 h, tissue Blood, dose level High, time 3 day
[11] = 600 mg/kg, […], dose level High, time 7 day
[12] = 600 mg/kg, […], dose level High, time 14 day
[13] = 600 mg/kg, […], dose level High, time 28 day
[14] = 600 mg/kg, […], tissue Blood, dose level High, time 7 day
[15] = 600 mg/kg, […], tissue Blood, dose level High, time 14 day
[16] = 600 mg/kg, […], tissue Blood, dose level High, time 28 day

Structure (SMILES): CC(=O)Nc1nnc(S(N)(=O)=O)s1 [ACETAZOLAMIDE]
- APTT [1]: 19.2 s
- Bas [1]: 0%
- Eos [1]: 1.2%
- Fbg [1]: 313.4 mg/dL
- Ht [1]: 39.9%
- MCH [1]: 21.3 pg
- MCHC [1]: 34.1%
- MCV [1]: 62.6 fL
- Mono [1]: 3%
- Neu [1]: 18.6%
- PT [1]: 16.5 s
- RBC [1]: 637.6 x10_4/ul
- Ret [1]: 5.3%
- KIDNEY_L [2]: 1.1 g
- KIDNEY_R [2]: 1 g
- KIDNEY_TOTAL [2]: 2.1 g
- ALP [2]: 1836.6 IU/L
- ALT [2]: 45.2 IU/L
- AST [2]: 64.2 IU/L
- BUN [2]: 20 mg/dL
- CRE [2]: 0.2 mg/dL
- Ca [2]: 10.8 mg/dL
- Cl [2]: 109.6 meq/L
- DBIL [2]: 0 mg/dL
- GLC [2]: 175.2 mg/dL
- IP [2]: 7.5 mg/dL
- K [2]: 4.1 meq/L
- LDH [2]: 187.8 IU/L
- Na [2]: 142.4 meq/L
- RALB [2]: 3 g/dL
- TBIL [2]: 0.008 mg/dL
- TC [2]: 83.2 mg/dL
- TG [2]: 81.6 mg/dL
- TP [2]: 5.3 g/dL
- gamma-GTP [2]: 1.4 IU/L
- TERMINAL_BW [3]: 243.9 g
- TERMINAL_BW [4]: 281.3 g
- TERMINAL_BW [5]: 340.5 g
- APTT [6]: 20 s
- Bas [6]: 0%
- Eos [6]: 1%
- Fbg [6]: 338 mg/dL
- Ht [6]: 39%
- MCH [6]: 21.1 pg
- MCHC [6]: 35.4%
- MCV [6]: 59.7 fL
- Mono [6]: 2.6%
- RBC [6]: 653.4 x10_4/ul
- Ret [6]: 5.9%
- APTT [7]: 22 s
- Bas [7]: 0%
- Eos [7]: 0.6%
- Fbg [7]: 302.4 mg/dL
- Ht [7]: 40.2%
- MCH [7]: 20.4 pg
- MCHC [7]: 35.2%
- MCV [7]: 57.9 fL
- Mono [7]: 1.4%
- Neu [7]: 17.6%
- RBC [7]: 696.2 x10_4/ul
- Ret [7]: 4.5%
- APTT [8]: 24.7 s
- Bas [8]: 0%
- Eos [8]: 0.8%
- Fbg [8]: 312.2 mg/dL
- Ht [8]: 42%
- MCH [8]: 19.3 pg
- MCHC [8]: 34.7%
- Mono [8]: 1.8%
- PT [8]: 16.5 s
- RBC [8]: 757.6 x10_4/ul
- Ret [8]: 3%
- KIDNEY_L [3]: 1.1 g
- KIDNEY_R [3]: 1.1 g
- KIDNEY_TOTAL [3]: 2.2 g
- KIDNEY_L [4]: 1.2 g
- KIDNEY_R [4]: 1.2 g
- KIDNEY_TOTAL [4]: 2.5 g
- KIDNEY_L [5]: 1.4 g
- KIDNEY_R [5]: 1.4 g
- KIDNEY_TOTAL [5]: 2.8 g
- ALP [3]: 1704.2 IU/L
- ALT [3]: 44 IU/L
- AST [3]: 67.4 IU/L
- BUN [3]: 20.4 mg/dL
- CRE [3]: 0.2 mg/dL
- Ca [3]: 10.7 mg/dL
- Cl [3]: 110.8 meq/L
- DBIL [3]: 0 mg/dL
- GLC [3]: 186.8 mg/dL
- IP [3]: 6.7 mg/dL
- K [3]: 4.2 meq/L
- LDH [3]: 179 IU/L
- Na [3]: 143.6 meq/L
- PL [3]: 140.2 mg/dL
- RALB [3]: 2.9 g/dL
- TBIL [3]: 0 mg/dL
- TC [3]: 69.8 mg/dL
- TG [3]: 133.8 mg/dL
- TP [3]: 5.1 g/dL
- gamma-GTP [3]: 1.4 IU/L
- ALP [4]: 1326.4 IU/L
- ALT [4]: 42 IU/L
- AST [4]: 65.6 IU/L
- BUN [4]: 19 mg/dL
- CRE [4]: 0.2 mg/dL
- Ca [4]: 10.6 mg/dL
- Cl [4]: 107.4 meq/L
- DBIL [4]: 0 mg/dL
- GLC [4]: 184.4 mg/dL
- IP [4]: 6.7 mg/dL
- K [4]: 3.7 meq/L
- LDH [4]: 139 IU/L
- Na [4]: 143.8 meq/L
- PL [4]: 142.4 mg/dL
- RALB [4]: 3.1 g/dL
- TBIL [4]: 0.002 mg/dL
- TC [4]: 69.8 mg/dL
- TP [4]: 5.6 g/dL
- gamma-GTP [4]: 2 IU/L
- ALP [5]: 1449.8 IU/L
- ALT [5]: 44.2 IU/L
- AST [5]: 69 IU/L
- BUN [5]: 17.2 mg/dL
- CRE [5]: 0.2 mg/dL
- Cl [5]: 108.2 meq/L
- DBIL [5]: 0 mg/dL
- GLC [5]: 179.6 mg/dL
- IP [5]: 5.4 mg/dL
- K [5]: 3.8 meq/L
- LDH [5]: 136.8 IU/L
- Na [5]: 141.8 meq/L
- PL [5]: 159 mg/dL
- RALB [5]: 3.2 g/dL
- TBIL [5]: 0.002 mg/dL
- TC [5]: 81.4 mg/dL
- TG [5]: 136.4 mg/dL
- TP [5]: 6 g/dL
- gamma-GTP [5]: 2.4 IU/L
- TERMINAL_BW [9]: 195.4 g
- APTT [10]: 18.7 s
- Bas [10]: 0%
- Eos [10]: 1%
- Fbg [10]: 285 mg/dL
- Ht [10]: 41.9%
- Lym [10]: 86%
- MCH [10]: 20.5 pg
- MCHC [10]: 34.2%
- MCV [10]: 59.9 fL
- Mono [10]: 2.4%
- Neu [10]: 9.6%
- PT [10]: 17.7 s
- RBC [10]: 699.4 x10_4/ul
- Ret [10]: 3.9%
- KIDNEY_L [9]: 0.9 g
- KIDNEY_R [9]: 0.9 g
- KIDNEY_TOTAL [9]: 1.8 g
- ALP [9]: 1356 IU/L
- ALT [9]: 43 IU/L
- AST [9]: 57.8 IU/L
- BUN [9]: 22.6 mg/dL
- CRE [9]: 0.2 mg/dL
- Ca [9]: 10.8 mg/dL
- Cl [9]: 116 meq/L
- DBIL [9]: 0 mg/dL
- GLC [9]: 186.6 mg/dL
- IP [9]: 7.9 mg/dL
- K [9]: 4.1 meq/L
- LDH [9]: 211.2 IU/L
- Na [9]: 142.6 meq/L
- PL [9]: 151.8 mg/dL
- RALB [9]: 3 g/dL
- TBIL [9]: 0.006 mg/dL
- TC [9]: 84 mg/dL
- TG [9]: 90.6 mg/dL
- TP [9]: 5.4 g/dL
- gamma-GTP [9]: 1 IU/L
- TERMINAL_BW [11]: 226.8 g
- TERMINAL_BW [12]: 263.9 g
- TERMINAL_BW [13]: 330.6 g
- APTT [14]: 19.2 s
- Bas [14]: 0%
- Eos [14]: 1%
- Fbg [14]: 314.4 mg/dL
- Ht [14]: 39.9%
- MCH [14]: 21 pg
- MCHC [14]: 34.5%
- MCV [14]: 60.9 fL
- Mono [14]: 2.4%
- RBC [14]: 656.2 x10_4/ul
- Ret [14]: 6%
- APTT [15]: 21.5 s
- Bas [15]: 0%
- Eos [15]: 0.8%
- Fbg [15]: 315.6 mg/dL
- MCH [15]: 20.4 pg
- MCHC [15]: 35.3%
- MCV [15]: 57.8 fL
- Mono [15]: 2.4%
- Neu [15]: 23.6%
- PT [15]: 16.7 s
- RBC [15]: 708 x10_4/ul
- Ret [15]: 5.3%
- APTT [16]: 23 s
- Bas [16]: 0%
- Eos [16]: 1%
- Fbg [16]: 306.4 mg/dL
- Ht [16]: 42.1%
- MCH [16]: 19.4 pg
- MCHC [16]: 34%
- MCV [16]: 57 fL
- Mono [16]: 2.8%
- PT [16]: 16.9 s
- RBC [16]: 739.2 x10_4/ul
- Ret [16]: 3.4%
- KIDNEY_L [11]: 1.1 g
- KIDNEY_R [11]: 1.1 g
- KIDNEY_TOTAL [11]: 2.1 g
- KIDNEY_L [12]: 1.2 g
- KIDNEY_R [12]: 1.3 g
- KIDNEY_TOTAL [12]: 2.5 g
- KIDNEY_L [13]: 1.4 g
- KIDNEY_R [13]: 1.4 g
- KIDNEY_TOTAL [13]: 2.8 g
- ALP [11]: 1613 IU/L
- ALT [11]: 46 IU/L
- AST [11]: 71.6 IU/L
- BUN [11]: 20 mg/dL
- CRE [11]: 0.2 mg/dL
- Ca [11]: 10.9 mg/dL
- Cl [11]: 114.2 meq/L
- DBIL [11]: 0 mg/dL
- GLC [11]: 179.8 mg/dL
- IP [11]: 7.2 mg/dL
- K [11]: 4.2 meq/L
- LDH [11]: 162.8 IU/L
- Na [11]: 144.6 meq/L
- PL [11]: 167.4 mg/dL
- RALB [11]: 3 g/dL
- TBIL [11]: 0 mg/dL
- TC [11]: 84.2 mg/dL
- TG [11]: 124 mg/dL
- TP [11]: 5.4 g/dL
- gamma-GTP [11]: 1.2 IU/L
- ALP [12]: 1257.6 IU/L
- ALT [12]: 40.4 IU/L
- AST [12]: 61.4 IU/L
- BUN [12]: 18.8 mg/dL
- CRE [12]: 0.2 mg/dL
- Ca [12]: 10.5 mg/dL
- Cl [12]: 110.6 meq/L
- DBIL [12]: 0 mg/dL
- GLC [12]: 181.8 mg/dL
- IP [12]: 7 mg/dL
- K [12]: 3.7 meq/L
- LDH [12]: 141.6 IU/L
- Na [12]: 143.4 meq/L
- PL [12]: 152.2 mg/dL
- RALB [12]: 3 g/dL
- TBIL [12]: 0.004 mg/dL
- TC [12]: 76.2 mg/dL
- TG [12]: 130.4 mg/dL
- TP [12]: 5.5 g/dL
- gamma-GTP [12]: 1.8 IU/L
- ALP [13]: 1120.2 IU/L
- AST [13]: 66.4 IU/L
- BUN [13]: 18.4 mg/dL
- CRE [13]: 0.2 mg/dL
- Ca [13]: 10.2 mg/dL
- Cl [13]: 111.2 meq/L
- DBIL [13]: 0 mg/dL
- GLC [13]: 178 mg/dL
- IP [13]: 5.6 mg/dL
- K [13]: 3.8 meq/L
- LDH [13]: 149 IU/L
- Na [13]: 142.6 meq/L
- PL [13]: 136.2 mg/dL
- RALB [13]: 3.2 g/dL
- TBIL [13]: 0.01 mg/dL
- TC [13]: 71.6 mg/dL
- TG [13]: 115.4 mg/dL
- TP [13]: 5.6 g/dL
- gamma-GTP [13]: 2.2 IU/L
